Laboratory results published in patent US20250312336A1, “Compositions And Methods For Treating Cancer With Calcium Channel Inhibitors” (Institute for Cancer Research d/b/a The Research Institute …, priority 2024, published 2025).
“Also recorded” adds a separate entry of the source.

B1: annexin V: PtdSer binding recombinant annexin V, label-free (protein, UniProt P08758 2-320, looked up)
Annexin A5: AQVLRGTVTDFPGFDERADAETLRKAMKGLGTDEESILTLLTSRSNAQRQEISAAFKTLFGRDLLDDLKSELTGKFEKLIVALMKPSRLYDAYELKHALKGAGTNEKVLTEIIASRTPEELRAIKQVYEEEYGSSLEDDVVGDTSGYYQRMLVVLLQANRDPDAGIDEAQVEQDAQALFQAGELKWGTDEEKFITIFGTRSVSHLRKVFDKYMTISGFQIEETIDRETSGNLEQLLLAVVKSIRSIPAYLAETLYYAMKGAGTDDHTLIRVMVSRSEIDLFNIRKEFRKNFATSLYSMIKGDTSGDYKKALLLLCGEDD

How the values were obtained:
Panc-1 cells = assay: Viability of Panc-1 cells under HDL receptor blockade; format: cell-based, human; conditions: HDL receptor inhibitor, LDS
Procedure: For direct enumeration of viable cells in co-cultures with CAFs, we seeded CAFs at 12,000 cells per well in 96-well plate (#3603, Corning) in DMEM/10% FBS. The next day, the media was replaced with 10%/LDS/DMEM and 4,000 DsRed-tagged Panc-1 cells were plated on the top of CAFs at 3:1 ratio. After 96 hours, fluorescence of viable DsRed-positive Panc-1 cells was measured using Spark Multimode Microplate Reader (Tecan) with parameters set at 540 nm for excitation and 590 nm for detection. To measure the dynamics of cell proliferation in vitro, we used xCELLigence E-Plate (ACEA BioSciences,) as per the manufacturer's recommended protocol. Impedance values were recorded every hour. Data was graphed using GraphPad Prism software.

[1] = system: PtdSer externalization in KPC tumors; assay: Phosphatidylserine imaging in autochthonous KPC pancreatic tumors; format: in vivo, mouse; conditions: KPC mice
KPC3 pancreatic tumors = assay: Orthotopic syngeneic KPC3 pancreatic tumor growth; format: in vivo, mouse; conditions: oral gavage 5 days/week for 3 weeks; niclosamide 150 mg/kg, clofazimine 50 mg/kg
Procedure: Syngeneic 5×10^5 KPC3 cells were injected into the tail of pancreas of anesthetized C57B1/6J mice. […] Mice were kept under defined-flora pathogen-free conditions at the AAALAC-approved Animal Facility of the Fox Chase Cancer Center, Philadelphia, PA. Mice of both genders, equally distributed, were used for the experiments.

OT-1 CTLs = assay: Trogocytosis assay of DiD-labeled CAFs co-cultured with OT-1 CTLs; format: cell-based, mouse; conditions: 12 h co-culture; niclosamide 1 μM, clofazimine 1 μM, anti-TIM3 Ab 4 μg/ml, 25-hydroxycholesterol 4 μM
Procedure: For trogocytosis between OT-1 and CAF cells, T cells were isolated from splenocytes of OTI mice (strain 021880, The Jackson Laboratory) and stimulated with OVA257-264 (1 μg/ml) for 24 hours as described.
Cholesterol abundance in cell membranes was determined with Cholesterol Detection Assay Kit (Cayman, cat #10009779). Dissociated cells were fixed with fixative solution for 10 minutes, washed and labeled with Filipin III as per the manufacturer's instructions. Labeling with Filipin III was done by incubating in the dark for 30 minutes. After two washes for 5 minutes each, labeling was analyzed by flow cytometry (excitation: 340-380, emission: 385-470). The IFN-γ, Granzyme B and Foxp3 were detected using Foxp3/Transcription Factor Staining Buffer (00-5523-00, Thermo Fisher Scientific). Cells were stained for cell surface markers at 4° C. for 30 min followed by fixation and permeabilization buffer for 30 mins and two washes with permeabilization buffer and incubation with the indicated antibodies for 30 mins, washed with PBS twice followed by flow cytometry analysis.

[2] = system: TMEM16F-dependent syncytia induced by SARS-COV-2; conditions: previous studies; cited from earlier work
ANO6 [3] = target: T1, ANO6 (Homo sapiens, UniProt Q4KMQ2); assay: PtdSer externalization (annexin XII) in CAFs co-cultured with DsRed-tagged Panc-1 cells; format: cell-based; set-up: this increase was observed only in control CAFs (ANO6-proficient) engaged in physical contacts with DsRed-tagged Panc-1 cells; endogenous in cells; host or cells: human CAFs in co-culture with DsRed-tagged Panc-1 cells; conditions: BTP2 10 μM; clofazimine 1 μM; niclosamide
T1 sequence (Q4KMQ2 1-910): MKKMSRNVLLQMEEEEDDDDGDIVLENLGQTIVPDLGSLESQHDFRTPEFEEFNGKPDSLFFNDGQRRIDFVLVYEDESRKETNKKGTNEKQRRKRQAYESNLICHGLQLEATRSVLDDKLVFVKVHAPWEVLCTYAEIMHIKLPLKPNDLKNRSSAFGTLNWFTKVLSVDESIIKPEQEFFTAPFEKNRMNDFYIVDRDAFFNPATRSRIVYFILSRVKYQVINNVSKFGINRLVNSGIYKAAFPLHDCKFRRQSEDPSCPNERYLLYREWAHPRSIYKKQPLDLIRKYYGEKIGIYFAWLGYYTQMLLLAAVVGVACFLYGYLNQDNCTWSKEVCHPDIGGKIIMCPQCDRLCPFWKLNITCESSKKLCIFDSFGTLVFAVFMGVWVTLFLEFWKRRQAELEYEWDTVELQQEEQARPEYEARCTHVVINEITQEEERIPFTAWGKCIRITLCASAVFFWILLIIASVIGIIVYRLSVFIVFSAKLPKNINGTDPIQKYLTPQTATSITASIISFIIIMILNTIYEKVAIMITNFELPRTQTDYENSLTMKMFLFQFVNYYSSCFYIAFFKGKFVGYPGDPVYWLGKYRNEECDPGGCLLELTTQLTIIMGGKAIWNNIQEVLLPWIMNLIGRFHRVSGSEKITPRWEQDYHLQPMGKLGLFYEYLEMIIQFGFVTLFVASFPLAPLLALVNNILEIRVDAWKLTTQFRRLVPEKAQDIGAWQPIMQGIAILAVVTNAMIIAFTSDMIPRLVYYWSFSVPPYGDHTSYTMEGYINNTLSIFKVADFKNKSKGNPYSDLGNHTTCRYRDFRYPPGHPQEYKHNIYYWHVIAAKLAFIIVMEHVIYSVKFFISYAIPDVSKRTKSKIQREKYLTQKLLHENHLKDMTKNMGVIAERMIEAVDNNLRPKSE
Procedure: (§1) CAFs were seeded in 24-well glass bottom plates (cat. #81156, Ibidi, Fitchburg, WI) at a density of 20,000 cells per well. Cells were then treated with niclosamide (1 μM) for 2 h. After one wash with FBS-free media at RT, cells were incubated with 250 μl of 1:100 annexin XII and 1:200 propidium iodide (pSIVA Abcam #ab129817), with or without 10 μM ionomycin. Cells were then incubated (5 min 37C) and imaged by fluorescence microscopy using a Nikon A1 camera (Nikon) linked to a Nikon Eclipse Ti2-E Inverted Microscope Imaging System (Nikon) for each channel. Fifteen images per well were acquired.

[4] = system: DsRed-tagged PDAC KPC3 tumors; assay: Intravital multiphoton imaging of BODIPY-cholesterol LDL uptake in DsRed-tagged KPC3 tumors; format: in vivo, mouse
Procedure: Mice with established orthotopic tumors roughly 21 days post implantation were anesthetized with 1.5-2% isoflurane/oxygen mixture maintained for the duration of imaging. Pancreatic tumors were exposed through a 1 cm incision on the left flank of the mouse placed on a 35° C. heating pad (Kent Scientific). Intensity thresholds were set up to distinguish signal from background fluorescence, and areas positive for DsRed, indicative of tumor cells, were selected for 3D confocal imaging using a 25× objective in the Leica SP8 Dive multiphoton imaging system (Leica Microsystems), prior to the intravenous administration of 150 μL of LDL carrying BODIPY-cholesterol and at 0.5, 1, 5, 16, and 19-hour interval post injection with XY resolution 0.867 um/px and Z distance 2 μm. For each time interval, 2-3 mice were imaged for 0.5-2 hours under continuous anesthesia. At the end of each imaging session, the animals were euthanized, and tissues were collected. The acquired 3D stacks were analyzed using Imaris 10.0.0 software (Oxford Instruments, UK). […] Mean intensity of cholesterol volume co-localized with tumor volume or volume outside of tumor was measured and ratio inside intensity/outside intensity was calculated. […] The volume of vesicles inside the tumor were expressed as a percentage relative to tumor volume.

CAF1 fibroblasts = assay: Western blot of signaling epitopes in CAF1 fibroblast lysates; format: cell-based, human; conditions: band densities relative to vehicle control
Procedure: Functional fibroblastic cell 3D culture units are needed to ensure the pathophysiological signal reciprocity between fibroblastic cells and self-generated ECM is sustained ex vivo. These units were generated using known methods. Briefly, confluent cultures of human pancreatic fibroblastic cells, harvested from surgical samples and immortalized via hTERT overexpression, were supplemented daily with freshly-prepared ascorbic acid (50 ug/mL) for a period lasting 5 days. The resulting fibroblastic/ECM 3D functional units were used for the phenotypic characterization of the units and to report on the pro-tumor vs. tumor-suppressive (normalized) statuses of the experimental fibroblastic/ECM units. For this, lysates obtained from the assorted units were resolved using SDS-PAGE and traits were gauged via western blot; testing for constitutive integrin and PI3K activities depicted by phosphorylated FAK and AKT respectively. Cultured cells were lysed in RIPA buffer (#24928, Santa Cruz) with phosphatase inhibitor (#1862495, Thermo Fisher Scientific) and protease inhibitors (#1861278, Thermo Fisher Scientific) on ice and cleared by centrifugation (15 min at 17,000 g). The protein concentration was measured with a Pierce BCA Protein Assay Kit (#23225, Thermo Fisher Scientific). […] The density of obtained bands was quantified with Image J software (FIJI).

ANO6 [5] = target: T1, ANO6; assay: Phosphatidylserine externalization assay in CAFs pulsed with ionomycin (annexin XII); format: cell-based; set-up: endogenous in cells; host or cells: human patient-derived, hTERT-immortalized pancreatic cancer-associated fibroblasts (CAFs); conditions: niclosamide 1 μM 2 h; ionomycin 5 minutes at 10 μM; annexin XII staining
Procedure: as §1

KPCN349 cells = assay: Trogocytosis of BODIPY-cholesterol labeled CAF membranes by KPCN349 cells with PtdSer masking; format: cell-based, murine; conditions: 100 nM Annexin-V or 100 nM Zn-DPA; CAFs pre-treated 2 h, maintained in co-culture
Procedure: To label cellular membranes, pairs of lipophilic fluorescent dyes were used according to the manufacturer's instructions in the following combinations: 1) adherent CAFs were stained with 1 μM PKH67 (Sigma-Aldrich), Panc-1 were stained in suspension with 10 μM CellTracker™ orange CMCMR (Thermo Fisher Scientific); 2) CAFs labeled with 0.5 μM BODIPY-cholesterol (Topfluor Cholesterol, #DO-016545, Avanti Polar Lipids) dissolved in 0.1 mM methyl-beta-cyclodextrin (#C4555, Sigma) with 2 μM cholesterol (#C8667, Sigma-Aldrich) in MEM media at 37° C. for 30 min in suspension; murine or human (Panc-1) PDAC cells were stained in suspension with CPD670 (#65-0840-85, Thermo Fisher Scientific). After labeling, CAFs were co-incubated for the indicated time intervals with PDAC cells in 12-well culture plates at ratio of 2:1 in 0.5% DMEM media. Co-cultures of CAFs and PDAC cells for 3 minutes on ice minutes were used as negative controls. In experiments assessing the effect of extracellular calcium on trogocytosis, cells were co-cultured in Phosphate Buffered Saline (PBS) containing calcium and magnesium (D8662, Sigma-Aldrich) or in PBS without calcium and magnesium (D8537, Sigma-Aldrich). […] Trogocytosis was measured as the acquisition of CAF-specific fluorescence in PDAC cells by flow cytometry on MACSQuant® VYB Flow Cytometer (Miltenyi Biotec) or FACScan analyzer (BD Biosciences). […]

Row | Molecule | Tumor weights of orthotopic syngeneic KPC3 pancreatic tumors (KPC3 pancreatic tumors) | Transfer of DiD (CAF PM uptake) from CAFs to OT-1 CTLs (OT-1 CTLs) | Formation of TMEM16F-dependent syncytia induced by SARS-COV-2 [2] | PtdSer externalization (annexin XII) in CAFs co-cultured with Panc-1 cells (ANO6 [3]) | also measured
1 | CCCCCCC1CCCC1=NNC(N)=S (stereo not drawn) [BTL1] | – | – | – | – | Panc-1 viability (Panc-1 cells): loss of Panc-1 viability
2 | CC(C)/N=c1\cc2n(-c3ccc(Cl)cc3)c3ccccc3nc-2cc1Nc1ccc(Cl)cc1 [clofazimine] | significantly reduced tumor weights | notably suppressed the measured transfer | block formation | suppressed PtdSer externalization; also recorded: blocked | PtdSer externalization in cytokeratin-positive cancer cells and podoplanin-positive CAFs (KL5c betabody) ([1]; two daily doses 50 mg/kg, 50 μg KL5c IV 5 hours prior to sacrifice): blocks PtdSer externalization; PtdSer externalization in KPC tumors (PSVue-794 infrared probe) ([1]; two daily doses 50 mg/kg, probe IV 24 hours prior to sacrifice): blocks PtdSer externalization; Detection of externalized PtdSer in PDAC using two chemically unrelated probes ([1]; two daily doses of clofazimine 50 mg/kg, KL5c betabody and PSVue-794): completely suppressed detection of externalized PtdSer
3 | O=C(Nc1ccc([N+](=O)[O-])cc1Cl)c1cc(Cl)ccc1O [niclosamide] | significantly reduced tumor weights | notably suppressed the measured transfer | block formation | absence of annexin XII labeling | Cholesterol accumulation in intratumoral vesicles containing BODIPY-cholesterol ([4]; 19 hours post injection): significantly lower accumulation; BODIPY-cholesterol accumulation in DsRed-tagged PDAC KPC3 cells ([4]; niclosamide-treated mice, after intravenous labeled LDL, 10, 16 and 19 hours): suppressed BODIPY-cholesterol accumulation; Signaling: expression of indicated protein epitopes in total cellular lysates of unmodified CAF1 fibroblasts (CAF1 fibroblasts): suppresses signaling; PtdSer externalization induced by ionomycin in CAFs pre-treated with inhibitor (ANO6 [5]): did not cause externalized PtdSer; also recorded: prevents PtdSer externalization
4 | B1 | – | significantly reduced CAF PM uptake | – | – | Uptake of BODIPY-labeled CAF membranes by KPCN349 cells (KPCN349 cells): significantly reduced uptake; also recorded: antagonizes trogocytosis
